This note sets out measurements from US20240197809A1, “HAIR CARE COMPOSITION AND BANANA FLOWER EXTRACT AND METHOD FOR HAIR CARE USING THE SAME” (TCI CO., LTD., priority 2022, published 2024).

Assay [1] has as its system dihydrotestosterone content in human prostate cell LNcap. Nature of the assay: Test of banana flower extract to inhibit dihydrotestosterone (DHT ELISA in testosterone-treated LNcap cells). The assay is classed as cell-based. The conditions noted are these: testosterone 2 h, blank group 32.8 pg/mL. As for the experimental part:
A significant increase in the production of dihydrotestosterone (DHT) in hair follicles of the forehead can be observed in young bald female patients. If the dihydrotestosterone can be inhibited, the effect of caring hair follicles and promoting hair growth is achieved. In this test, whether the content of the dihydrotestosterone in human prostate cells treated with different concentrations of banana extract was reduced or not was measured, and a common therapeutic drug Propecia for alopecia androgenetica was used as control.
Cell line: Human prostate cell LNcap (purchased from BCRC; access number Cat. 60088), hereinafter referred to as LNcap cell.
Cell medium (human prostate cell LNcap cell medium): RPMI 1640 Medium (RPMI), powder (Gibco; Cat. 31800-022), 10% fetal bovine serum (FBS) (Gibco; Cat. 10437-028) and 1% Antibiotic-Antimycotic (AA) (Gibco; Cat. 15240-062).
Reagent: 1×DPBS (Gibco, Cat. 14200-075), trypsin (1× Trypsin-EDTA, purchased from Thermo, Cat. FNN0011), Propecia (also referred to as Finasteride, purchased from Sigma; Cat. F1293), Testosterone (purchased from Sigma; Cat. T1500), and cell lysis buffer (purchased from RIPA Lysis and Extraction Buffer (Thermo #89900).
Detection kits: dihydrotestosterone ELISA Reagent Detection Kits (USCN; CEA443Ge).
Firstly, LNcap cells were implanted into a 6-well cell culture plate in a density of 1×10^5 LNcap cells and cultured at 37° C. in a 5% carbon dioxide incubator for 24 h.
The cultured LNcap cells were divided into an experimental group A, an experimental group B, a control group and a blank group. […]
Next, a 200 μL 1× cell lysis buffer was added into the tube to lyse the LNcap cells. […] Finally, the dihydrotestosterone content in the LNcap cells was detected by using a dihydrotestosterone ELISA kit. […]
(§1) Here, whether two groups compared have a statistically significant difference or not is analyzed with a single-tailed student t-test to obtain their p-values. […]
On the technique in general: In an ELISA, binding on a coated surface is turned into a signal by an enzyme label.

In assay [2] the test system is Human Follicle Dermal Papilla Cells (HFDPC). Description: Hair follicle cell proliferation test (Click-iT EdU flow cytometry). The class given is cell-based.
From the text: Hair follicle cells are the foundation of hair. In hair follicle cells at the growth phase, cells in hair follicle bulbs of the hair root can divide once a day. If the proliferation of the hair follicle cells is promoted, the effect of promoting hair growth can be achieved. In this test, the proliferation of human follicle dermal papilla cells treated with the compound I was examined.
Cell line: Human Follicle Dermal Papilla Cells (HFDPC) (purchased from PromoCell; Cat. C-12071), hereinafter referred to as HFDPC cells.
Detection kit: Cell proliferation ELISA reagent detection kit (Click-iT™ Plus EdU Flow Cytometry Assay Kits-Alexa Fluor™ 488 picolyl azide, 50 tests, brand Invitrogen, model C10632), containing composition C (Dimethyl sulfoxide DMSO), composition D (Click-iT™ fixative), composition E (Click-iT™ saponin-based permeabilization and wash reagent), composition F (Copper protectant), and composition G (Click-iT™ EdU buffer additive).
Firstly. […]
The supernatant was removed. […] Finally, a fluorescence signal was measured with a flow cytometer (excitation light: 488 nm; scattered light: 527 nm and 590 nm).
as §1

For the compound `O=C(O)CC(O)(CC(=O)O)C(=O)NCCc1ccc(O)c(O)c1` [compound I, N-β-citroyldopamine], the dihydrotestosterone content in assay [1] (5 μg/mL (experimental group B)) worked out at 25.20 pg/mL; in assay [1] (10 μg/mL (experimental group A)), 25.03 pg/mL. In addition, the “number of the HFDPC cells (blank group = 100%)” value in assay [2] (10 μg/mL, Example 3, FIG. 2) was determined as 118.81%.

For the compound `CC(C)(C)NC(=O)[C@H]1CC[C@H]2[C@@H]3CC[C@H]4NC(=O)C=C[C@]4(C)[C@H]3CC[C@]12C` [Propecia, Finasteride, reference compound], the dihydrotestosterone content in assay [1] (20 μg/mL (control group)) is given as 17.16 pg/mL. For `CC(=O)OCC1O[C@H](O[C@]2(CO)O[C@H](COC(C)=O)C(O)C2OC(=O)/C=C/c2ccc(O)cc2)C(OC(C)=O)C(OC(C)=O)[C@@H]1O` (stereo partly drawn) [compound II, 6,2′,3′,6′-O-tetraacetyl-3-O-trans-p-coumaroylsucrose], in assay [2] (100 μM, Example 4, FIG. 3), the “number of the HFDPC cells (blank group = 100%)” value worked out at 112.54%.
